Reference: ChEMBL document CHEMBL1201862, “PubChem BioAssay data set” (2004)
Activity calls are given as the source filed them.

What was measured:
[1] = viability of PTEN-deleted HCT116 cells – cell-based, HCT116 PTEN knockout, dose response (AID 1047); type: functional;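 further: HCT116 colon tumor cells with PTEN knocked out; cells exposed to compound for 60 hours before readout; potency for loss of cell viability measured by luminescence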
[2] = viability of HCT116 lacking mutant beta-catenin – cell-based, human colon tumor, dose response (AID 1045); type: functional;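 further: HCT116 colon tumor cells with beta catenin knocked out; cells exposed to compound for 60 hours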
[3] = cells; type: functional
[4] = biological target: T1, Rac GTPase-activating protein 1 (Homo sapiens, UniProt Q9H0H5); test: blockers of MgcRacGAP-driven Rac1 GTP hydrolysis – biochemical, ADP Hunter fluorescence, primary and confirmatory, confirmation (AID 624330); type: functional
T1 sequence (Q9H0H5 whole entry): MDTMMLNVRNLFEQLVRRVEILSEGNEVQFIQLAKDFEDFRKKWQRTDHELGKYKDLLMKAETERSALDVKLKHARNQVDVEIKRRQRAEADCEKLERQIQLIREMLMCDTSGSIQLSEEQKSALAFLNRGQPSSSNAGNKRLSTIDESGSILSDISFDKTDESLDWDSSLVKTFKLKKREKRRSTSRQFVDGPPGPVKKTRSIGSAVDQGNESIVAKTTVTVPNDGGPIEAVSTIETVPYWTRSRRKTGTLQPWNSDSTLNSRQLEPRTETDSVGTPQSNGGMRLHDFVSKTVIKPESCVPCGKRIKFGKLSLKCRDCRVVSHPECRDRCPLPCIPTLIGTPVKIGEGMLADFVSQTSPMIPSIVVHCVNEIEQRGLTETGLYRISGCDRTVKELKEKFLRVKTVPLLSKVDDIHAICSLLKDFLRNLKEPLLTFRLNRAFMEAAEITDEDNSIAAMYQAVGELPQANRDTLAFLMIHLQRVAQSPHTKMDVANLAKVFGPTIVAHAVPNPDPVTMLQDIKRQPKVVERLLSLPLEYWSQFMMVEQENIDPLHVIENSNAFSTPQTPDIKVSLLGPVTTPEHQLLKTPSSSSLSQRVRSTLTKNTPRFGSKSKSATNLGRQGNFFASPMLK

[5] = biological target: Cytochrome P450 3A4 (Homo sapiens, UniProt P08684);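 further: CYP3A4 tested as one member of a cytochrome P450 panel screen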
[6] = biological target: T2, Protein skinhead-1 (Caenorhabditis elegans, UniProt P34707); type: functional
T2 sequence (P34707 whole entry): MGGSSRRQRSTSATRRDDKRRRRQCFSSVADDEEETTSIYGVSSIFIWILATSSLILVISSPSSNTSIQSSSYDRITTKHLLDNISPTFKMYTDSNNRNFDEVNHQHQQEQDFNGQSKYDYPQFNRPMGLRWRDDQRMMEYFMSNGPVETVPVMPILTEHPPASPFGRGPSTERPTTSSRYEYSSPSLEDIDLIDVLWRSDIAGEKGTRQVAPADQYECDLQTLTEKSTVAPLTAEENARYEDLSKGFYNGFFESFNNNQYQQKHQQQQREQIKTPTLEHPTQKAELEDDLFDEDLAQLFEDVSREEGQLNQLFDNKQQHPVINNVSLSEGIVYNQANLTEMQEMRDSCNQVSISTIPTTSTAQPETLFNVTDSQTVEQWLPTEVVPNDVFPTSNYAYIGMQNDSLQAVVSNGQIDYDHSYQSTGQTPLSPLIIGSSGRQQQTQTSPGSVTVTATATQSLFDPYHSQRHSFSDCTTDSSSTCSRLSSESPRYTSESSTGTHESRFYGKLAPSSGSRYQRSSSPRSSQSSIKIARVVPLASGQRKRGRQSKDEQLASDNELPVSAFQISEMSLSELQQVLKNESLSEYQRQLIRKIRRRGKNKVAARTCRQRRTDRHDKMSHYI

[7] = HIV-1 AD8 envelope cell-cell fusion blockers – cherry-pick, dose response (AID 652062); type: functional, cell-based;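 further: luciferase signal from cell-cell fusion driven by HIV-1 clade B AD8 Env; potency is for inhibitors of fusion seen as a drop in luminescence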
[8] = test system: H4; test: Luminescence Cell-Based Dose Response HTS to Identify Activators of 5'UTR Stem-Loop Driven Prion Protein mRNA Translation in H4 Neuroglioblastoma Cells. [Related pubchem assays: 1829 (Project Summary), 1814 (Primary HTS)]; type: functional; settings: Homo sapiens
[9] = Luminescence Cell-Based Dose Response HTS to Identify Activators of Luciferase Translation or Activity in H4 […] Cells. [Related pubchem assays: 1829 (Project Summary), 1814 (Primary HTS)]; type: functional
[10] = fluconazole-exposed Candida albicans growth modulators – fluorescence, retest, confirmation (AID 2467); type: functional, cell-based
[11] = NIH-3T3 fibroblast cytotoxicity, dose response, cytotoxicity control, cell-based, fluorescence, Alamar Blue, secondary assay (AID 2327); type: functional;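 further: NIH-3T3 mouse fibroblasts cultured with fluconazole at 8 µg/mL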
[12] = biological target: Cytochrome P450 2D6 (Homo sapiens, UniProt P10635);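 further: CYP2D6 member of a cytochrome P450 panel assay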
Sequence of Cytochrome P450 2D6 (P10635 whole entry): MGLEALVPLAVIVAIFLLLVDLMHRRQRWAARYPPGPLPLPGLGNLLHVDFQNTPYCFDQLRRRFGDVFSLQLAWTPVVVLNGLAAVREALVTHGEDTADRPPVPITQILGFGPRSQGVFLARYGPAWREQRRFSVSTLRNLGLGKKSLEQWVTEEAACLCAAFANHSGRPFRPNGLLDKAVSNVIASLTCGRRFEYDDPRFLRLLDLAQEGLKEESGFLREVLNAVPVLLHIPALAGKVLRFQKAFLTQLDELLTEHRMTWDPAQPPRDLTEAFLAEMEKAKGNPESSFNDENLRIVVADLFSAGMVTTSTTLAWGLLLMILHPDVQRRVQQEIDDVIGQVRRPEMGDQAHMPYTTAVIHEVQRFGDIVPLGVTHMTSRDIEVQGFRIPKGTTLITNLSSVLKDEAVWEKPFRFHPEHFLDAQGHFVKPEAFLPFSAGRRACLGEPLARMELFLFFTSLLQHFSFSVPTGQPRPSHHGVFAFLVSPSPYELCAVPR

Sequence of Cytochrome P450 3A4 (P08684 whole entry): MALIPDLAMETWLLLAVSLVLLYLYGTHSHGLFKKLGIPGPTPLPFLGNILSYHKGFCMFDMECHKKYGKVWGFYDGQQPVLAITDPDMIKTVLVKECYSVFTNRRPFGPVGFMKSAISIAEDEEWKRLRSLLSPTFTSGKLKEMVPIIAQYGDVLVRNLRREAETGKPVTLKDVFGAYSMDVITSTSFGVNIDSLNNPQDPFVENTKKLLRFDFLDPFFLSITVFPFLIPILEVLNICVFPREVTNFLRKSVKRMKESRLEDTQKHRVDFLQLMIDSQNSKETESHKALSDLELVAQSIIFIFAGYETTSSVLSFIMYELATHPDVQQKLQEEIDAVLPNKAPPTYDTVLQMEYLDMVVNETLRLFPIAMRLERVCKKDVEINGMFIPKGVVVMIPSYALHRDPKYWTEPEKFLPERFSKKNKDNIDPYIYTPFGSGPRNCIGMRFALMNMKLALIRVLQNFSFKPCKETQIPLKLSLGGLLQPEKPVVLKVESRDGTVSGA

SMILES: Cn1cc(C(=O)NCCN2CCN(c3cccc(Cl)c3)CC2)c2c3ccccc3n(C)c2c1=O
- EC50 [1]: 46.8 µM (active)
- EC50 [2]: 63 µM (active)

SMILES: Nc1ccccc1Nc1ccccc1
- IC50 [3]: 1.28 µM (active)
- IC50 [4]: 36.1 µM (active)

SMILES: CN(C)Cc1ccccc1-c1cncnc1NCc1cccs1
- AC50 [5]: 1.26 µM (inconclusive)

SMILES: CCCCCOC(=O)CSc1nnc(-c2ccccc2)c(O)n1
- AC50 [5]: 22.4 µM (inconclusive)

SMILES: COc1ccc(NC2CCCN(C(=O)CCC3=NNC(=O)CC3)C2)cc1 (centres undefined)
- IC50 [4]: 126 µM (active)

SMILES: COc1c(C(=O)Nc2nccs2)ccc2ccccc12
- IC50 [6]: 17.1 µM (active)

SMILES: Cc1noc(C)c1S(=O)(=O)N1CCCC(C(=O)NCCc2ccc(Cl)cc2)C1 (centres undefined)
- IC50 [6]: > 100 µM (inactive)

SMILES: CN(C)C(CNC(=O)CCc1nc2cc(Cl)ccc2n(Cc2ccccc2)c1=O)c1ccccc1 (centres undefined)
- IC50 [6]: 58.1 µM (inactive)

SMILES: Cc1ccc(C)c(NS(=O)(=O)c2ccc3c(c2)Cc2cc(S(=O)(=O)Nc4cc(C)ccc4C)ccc2-3)c1
- EC50 [1]: 9.63 µM (active)
- EC50 [2]: 11.2 µM (active)

SMILES: CCn1ncc(C2=NOC(C(=O)Nc3ccc(C)cc3)C2)c1C (centres undefined)
- AC50 [7]: 32.8 µM (active)

SMILES: Cc1ccc(-n2c(=S)[nH]c3sc4c(c3c2=O)CCC4)cc1
- IC50 [4]: 85.6 µM (active)

SMILES: CC1=NNC(=O)C1Br (centres undefined)
- IC50 [4]: 55.9 µM (active)

SMILES: O=C1CCC(C(=O)OCC(=O)N2N=C3/C(=C\c4ccccc4)CCCC3C2c2ccccc2)N1 (centres undefined)
- IC50 [6]: > 100 µM (inactive)

SMILES: Nc1ccc(C(=O)N/N=C/c2ccc(N3CCOCC3)s2)cc1
- IC50 [4]: 16.5 µM (active)

SMILES: CCc1nc2c(OCc3ccc(C(F)(F)F)cc3)cccn2c1N(C)C(=O)c1ccncc1
- IC50 [6]: 4.62 µM (active)

SMILES: CCCCn1c(S)nc2c(=O)n(C)c(=O)n(C)c21
- IC50 [4]: 20.9 µM (active)

SMILES: O=[N+]([O-])c1ccc(COc2ccc(CN3CCCC3)cc2)cc1
- IC50 [6]: 3.75 µM (active)

SMILES: CCN(CC)c1ccc(S(=O)(=O)N2CCOCC2)cc1NC(=O)COC(=O)/C=C/c1ccc(O)c(OC)c1
- IC50 [4]: 108 µM (active)

SMILES: CN1/C(=C/C=N/NC(=O)c2ccc([N+](=O)[O-])cc2)C(C)(C)c2ccccc21
- EC50 [1]: 24.3 µM (active)
- EC50 [2]: 23.2 µM (active)

SMILES: COc1cc(/C=N/NC(=O)C(=O)Nc2ccccn2)ccc1O
- IC50 [4]: 22.6 µM (active)

SMILES: O=C(COc1ccccc1F)N/N=C1\CCCc2ccccc21
- EC50 [8]: 53.3 µM (inconclusive)
- EC50 [9]: 24.8 µM (active)

SMILES: Cc1[nH]c2ccccc2c1/C=C/c1cc[n+](C)cc1
- EC50 [10]: > 38 µM (not active)
- EC50 [11]: 120 µM (inconclusive)
- AC50 [12]: 17.8 µM (inconclusive)
